{"source": "patent US20210252025A1", "about": "“SYNERGIC PHARMACEUTICAL COMBINATION OF A SELECTIVE INHIBITOR OF CYCLOOXYGENASE-2 AND AN ANTHRAQUINONE DERIVATIVE” (priority 2018, published 2021)", "key": {"[1]": {"details": "cited from earlier work"}, "[2]": {"system": "rats with gout induced by intra-articular uric acid", "test": "Pain-induced functional impairment model in the rat (PIFIR model), antinociceptive effects", "assay_type": "in vivo, male Wistar rats", "description": "The following compounds were employed: uric acid, celecoxib and diacerein, propylene glycol, carboxymethyl cellulose and mineral oil. The celecoxib and diacerein were dissolved in propylene glycol (5%) and carboxymethyl cellulose.\nIt started with determining the antinociceptive effects of the individual compounds to then go on to analyze the effects of the combination, employing the “Pain-induced functional impairment model in the rat” (“PIFIR model”). The animals were anesthetized in a glass desiccator, saturated with ether vapor. The gout was induced by applying an intra-articular injection (i.a.) of 0.05 ml of uric acid suspended in mineral oil at 30% in the right hind member, precisely in the femur-tibia-patella joint.\nA 1 mL glass syringe with a 4-mm-long No. 22 needle was used for the intra-articular injection. Immediately afterwards, an electrode is attached to each hind paw (of the rats) in the middle of the plantar calluses. The rats were left to recover from the anesthesia and placed in a 30-cm-diameter rotary stainless-steel cylinder. The cylinder was turned at 4 r.p.m., forcing the rats to walk for 2 min every half hour, for a total of 6.5 hours, (2.5 h to generate the arthritis and 4 h for the assessment of antinociceptive effects. The variable measured was the contact time of each one of the rats' hind legs in the cylinder.\nFirst it was decided to determine the range of doses that could form the celecoxib dose/response curve. […] The 50 mg/kg dose of diacerein has been determined to be a proper dose in the preclinical stage to be employed in combination and be able to determine if changes are produced in the antinociceptive effects.\nThus, the possible antinociceptive effects of both the individual and the combined forms of the compounds were determined and analyzed using animals with gout in the experimental model of Pain-induced functional impairment model in the rat. […]\nAfter the uric acid was administered to the joint to produce the gout type impairment and alteration, there was a wait of 2.5 hours for the total impairment to be produced (the symptoms of gout were already complete at 2.5 hours after the uric acid was administered). This time (2.5 hours after the administration of the uric acid) was considered to be “0” time, for administering the treatment, at this moment, with the individual drugs and the drugs in combined form, followed by the temporary courses of each treatment being determined for the following 4 hours. […]\nFrom the afore-described that corresponds to the experimental model of preclinical analysis of this combination of celecoxib with diacerein whose protection is being sought, the following results were obtained: The data are expressed as a percentage Functionality Index (FI %). […]"}, "rats": {"system": "rats", "test": "Assessment of toxic effects (lethality), oral", "excerpt": "In order to determine possible antinociceptive effects and toxic effects, male Wistar rats [Crl:(WI)BR] were employed with a weight of between 180 and 200 g. All the experimental procedures followed the recommendations of the Committee for Research and Ethical Issues of the International Association for the Study of Pain and the Guidelines on Ethical Standards for Investigations of Experiment Pain in Animals. The number of animals for experimentation was kept to a minimum (6 animals per experimental point for antinociceptive effects and 10 animals per experimental point for adverse effects: lethality). The animals were kept in a room with alternating dark/light cycles. Twelve hours before the antinociception experiments, food was withdrawn from the rats, only leaving them free access to water. All the experiments were carried out during the light phase.\nIn the determinations presented for the individual drugs or drugs in combination, an attempt was made to administer the treatment on a single occasion but, when this was not possible owing to the high concentration and limits of solubility, several administrations were made with 3-hour time intervals. The established doses were always increased in logarithmic units administered orally both for celecoxib and for diacerein.\nIn the determinations presented below, the treatment was administered on a single occasion and, in the case of celecoxib, high doses in several administrations until the required dose is completed. The established doses were always increased in logarithmic units and administered orally."}}}
{"smiles": "Cc1ccc(-c2cc(C(F)(F)F)nn2-c2ccc(S(N)(=O)=O)cc2)cc1", "note": "[celecoxib, 4-[5-(4-methylphenyl)-3-(trifluoromethyl)-1H-pyrazol-1-yl]benzenesulfonamide]", "values": [{"measurement": "binding to plasma proteins", "setting": "[1]; in vivo", "result": 97, "unit": "%"}, {"measurement": "time to maximum plasma concentration", "setting": "[1]; oral", "result": "around 3 hours"}, {"measurement": "maximum antinociceptive effectiveness (AUC of temporary courses, DRC)", "setting": "[2]; celecoxib by itself, oral, acute administration, doses 3.2 to 1000 mg/kg, 4 h assessment, mean ± standard error, FIG. 2", "result": "191.9±27.2", "unit": "au"}, {"measurement": "temporary courses of antinociceptive effect (FI %), dose dependence", "setting": "[2]; oral, acute administration, 4 h, celecoxib 3.2 to 1000 mg/kg alone or with diacerein 50 mg/kg", "result": "dose-dependent antinociceptive effects"}, {"measurement": "antinociceptive effects of chronic treatment compared with acute administration", "setting": "[2]; oral, chronic (7 days) vs acute form", "result": "better antinociceptive effects"}, {"measurement": "dose that starts to generate effects of lethality at 24 hours", "setting": "rats; oral, rats, 24 h post-treatment, FIG. 7", "result": 17800, "unit": "mg/kg"}, {"measurement": "dose that starts to generate effects of lethality at 48 hours", "setting": "rats; oral, rats, 48 h post-treatment, FIG. 8", "result": 10000, "unit": "mg/kg"}, {"measurement": "dose that starts to generate effects of lethality at 72 hours", "setting": "rats; oral, rats, 72 h post-treatment, FIG. 9", "result": 5600, "unit": "mg/kg"}]}
{"smiles": "CC(=O)Oc1cccc2c1C(=O)c1c(OC(C)=O)cc(C(=O)O)cc1C2=O", "note": "[diacerein, 4,5-Bis(acetyloxy)-9,10-dihydro-9,10-dioxo-2-anthracenecarboxylic acid]", "values": [{"measurement": "antinociceptive effect (recovery of FI %)", "setting": "[2]; 50 mg/kg oral doses, 4 h of assessment", "result": "did not show any antinociceptive effect whatsoever"}, {"measurement": "dose that starts to generate effects of lethality at 48 hours", "setting": "rats; male, Wistar [Crl:(WI)BR], rat, in vivo, po, 48 h", "result": 1800, "unit": "mg/kg"}, {"measurement": "dose that starts to generate effects of lethality at 72 hours", "setting": "rats; male, Wistar [Crl:(WI)BR], rat, in vivo, po, 72 h", "result": 1000, "unit": "mg/kg"}, {"measurement": "position of the DRC for the effects of lethality", "setting": "rats; oral, rats, relative to the DRC of celecoxib by itself", "result": "more to the left of that of celecoxib"}]}
